Experimental data reported in US20250230193A1, “CYCLIC COMPOUND HAVING SELECTIVE KRAS INHIBITORY EFFECT ON HRAS AND NRAS” (CHUGAI SEIYAKU KABUSHIKI KAISHA, priority 2022, published 2025).
Where a SMILES comes first, the peptide text is derived from it. Bridges are numbered along the chain shown (N, C = ends). [ ]: non-standard residue; d: D form. The star is where a group is joined. hPhe(3-Cl-4-CF3) = N[C@@H](CCc1ccc(C(F)(F)F)c(Cl)c1)C(=O)O; NPrPhe(4-CF3) = CCCN[C@@H](Cc1ccc(C(F)(F)F)cc1)C(=O)O; NPrPhe(4-Me) = CCCN[C@@H](Cc1ccc(C)cc1)C(=O)O; NMeGly(cPent) = CN[C@H](C(=O)O)C1CCCC1; NMeD = CN[C@@H](CC(=O)O)C(=O)O; NMeL = CN[C@@H](CC(C)C)C(=O)O; Pip = O=C(O)[C@@H]1CCCCN1; Morpholide = C1CN(*)CCO1; Ac5c = NC1(C(=O)O)CCCC1; Aze = O=C(O)[C@@H]1CCN1; Ac4c = NC1(C(=O)O)CCC1; Sar = CNCC(=O)O

Key:
[1] = molecular target: GDP-bound NRAS wild-type protein (Homo sapiens, UniProt P01111); test: Binding to NRAS by surface plasmon resonance (SPR), Single Cycle Kinetics; conditions: for NRAS/KRAS (ratio of KD value for GDP-bound NRAS wild-type protein to KD value for KRAS): KD ratio class
Sequence of GDP-bound NRAS wild-type protein (P01111 whole entry): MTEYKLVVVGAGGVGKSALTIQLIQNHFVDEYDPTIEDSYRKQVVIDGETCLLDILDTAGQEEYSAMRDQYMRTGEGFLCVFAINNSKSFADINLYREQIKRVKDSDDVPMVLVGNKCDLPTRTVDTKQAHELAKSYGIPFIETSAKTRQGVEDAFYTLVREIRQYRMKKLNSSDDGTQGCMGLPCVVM

[2] = molecular target: GDP-bound HRAS wild-type protein (Homo sapiens, UniProt P01112); test: Binding to HRAS by surface plasmon resonance (SPR), Single Cycle Kinetics; conditions: for HRAS/KRAS (ratio of KD value for GDP-bound HRAS wild-type protein to KD value for KRAS): KD ratio class
Sequence of GDP-bound HRAS wild-type protein (P01112 whole entry): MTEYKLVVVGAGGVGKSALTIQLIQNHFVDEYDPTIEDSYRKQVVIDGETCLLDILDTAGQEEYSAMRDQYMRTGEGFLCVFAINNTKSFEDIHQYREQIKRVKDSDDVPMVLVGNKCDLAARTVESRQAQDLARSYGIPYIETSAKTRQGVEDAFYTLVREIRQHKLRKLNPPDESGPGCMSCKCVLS

[3] = KD ratio, GDP-bound NRAS wild-type vs GDP-bound KRAS wild-type, SPR
[4] = KD ratio, GDP-bound HRAS wild-type vs GDP-bound KRAS wild-type, SPR

CCO[C@@H]1C[C@H]2C(=O)NC3(CCC3)C(=O)N(C)[C@@H](C3CCCC3)C(=O)N(C)[C@H](C(=O)N(C)CC)CC(=O)N(C)[C@@H](CC(C)C)C(=O)N[C@@H]([C@@H](C)CC)C(=O)N(C)CC(=O)N(C)[C@H]3C/C=C\CCN(C3=O)[C@@H](Cc3ccc(C)cc3)C(=O)N(C)CC(=O)N[C@@H](CCc3ccc(C(F)(F)F)c(OC)c3)C(=O)N2C1 [PP1910]
NRAS/KRAS (ratio of KD value for NRAS to KD value for KRAS) [1, 3]: A (a compound having 10 or more and less than 20 is denoted as A) | HRAS/KRAS (ratio of KD value for HRAS to KD value for KRAS) [2, 4]: B (a compound having 3 or more and less than 10 is denoted as B)

CCC[C@H]1C(=O)N[C@@H]([C@@H](C)CC)C(=O)N(C)CC(=O)N(C)[C@H]2C/C=C\CCN(C2=O)[C@@H](Cc2ccc(C)cc2)C(=O)N(C)CC(=O)N[C@@H](CCc2ccc(CC)c(Cl)c2)C(=O)N2C[C@H](OCC)C[C@H]2C(=O)NC2(CC(C)(C)C2)C(=O)N(C)[C@@H](C2CCCC2)C(=O)N(C)[C@H](C(=O)N(C)C)CC(=O)N1C [PP2778]
NRAS/KRAS (ratio of KD value with respect to GDP-bound NRAS wild-type protein to KD value with respect to KRAS) ([1]; class symbols): A (a compound having 10 or more and less than 20 is denoted as A) | HRAS/KRAS (ratio of KD value with respect to GDP-bound HRAS wild-type protein to KD value with respect to KRAS) ([2]; class symbols): A (a compound having 10 or more and less than 20 is denoted as A)

CCCN1C(=O)[C@@H]2CCN2C(=O)CN(C)C(=O)[C@H]([C@@H](C)CC)NC(=O)[C@H](CC(C)C)N(C)C(=O)C[C@@H](C(=O)N2CCOCC2)NC(=O)[C@H](C2CCCC2)N(C)C(=O)C2(CCC2)NC(=O)[C@@H]2CCCN2C(=O)[C@H](CCc2ccc(C(F)(F)F)c(Cl)c2)NC(=O)CN(C)C(=O)[C@@H]1Cc1ccc(C(F)(F)F)cc1 [PP0350] ([NMeL]I[Sar][Aze][NPrPhe(4-CF3)][Sar][hPhe(3-Cl-4-CF3)]P[Ac4c][NMeGly(cPent)]D-Morpholide; lactam N-11)
NRAS/KRAS (ratio of KD for GDP-bound NRAS wild-type to KD for KRAS) ([1]; SPR): C (A compound having a KD ratio of 0.1 or more and less than 3 is denoted as C) | HRAS/KRAS (ratio of KD for GDP-bound HRAS wild-type to KD for KRAS) ([2]; SPR): B (a compound having 3 or more and less than 10 is denoted as B)

CCO[C@@H]1C[C@H]2C(=O)NC3(CCC3)C(=O)N(C)[C@@H](C3CCCC3)C(=O)N(C)[C@H](C(=O)N(CC)CC)CC(=O)N(C)[C@@H](CC(F)F)C(=O)N[C@@H]([C@@H](C)CC)C(=O)N(C)CC(=O)N(C)[C@H]3C/C=C\CCN(C3=O)[C@@H](Cc3ccc(C(F)(F)F)cc3)C(=O)N(C)CC(=O)N[C@@H](CCc3cc(F)c(C(F)(F)F)c(F)c3)C(=O)N2C1 [PP1309]
NRAS/KRAS (ratio of KD value for GDP-bound NRAS wild-type protein to KD value for KRAS) ([1]; SPR): A (a compound having 10 or more and less than 20 is denoted as A) | HRAS/KRAS (ratio of KD value for GDP-bound HRAS wild-type protein to KD value for KRAS) ([2]; SPR): A (a compound having 10 or more and less than 20 is denoted as A)

CCC[C@H]1C(=O)N[C@@H]([C@@H](C)CC)C(=O)N(C)CC(=O)N(C)[C@H]2C/C=C\CCN(C2=O)[C@@H](Cc2ccc(C(F)(F)F)cc2)C(=O)N(C)CC(=O)N[C@@H](CCc2cc(F)c(C(F)(F)F)c(F)c2)C(=O)N2C[C@H](OCC)C[C@H]2C(=O)NC2(CCC2)C(=O)N(C)[C@@H](C2CCCC2)C(=O)N(C)[C@H](C(=O)N2CC3CCC(C2)O3)CC(=O)N1C [PP1315]
NRAS/KRAS (ratio of KD value for GDP-bound NRAS wild-type protein to KD value for KRAS) ([1]; SPR): AA (a compound having 20 or more is denoted as AA) | HRAS/KRAS (ratio of KD value for GDP-bound HRAS wild-type protein to KD value for KRAS) ([2]; SPR): A (a compound having 10 or more and less than 20 is denoted as A)

CC[C@H](C)[C@@H]1NC(=O)[C@H](CC(C)C)N(CC)C(=O)C[C@@H](C(=O)N2CCOCC2)N(C)C(=O)[C@H](C2CCCC2)N(C)C(=O)C2(CCCC2)NC(=O)[C@@H]2CCCN2C(=O)[C@H](CCc2cc(F)c(C(F)(F)F)c(F)c2)NC(=O)CN(C)C(=O)[C@H](Cc2ccc(C(F)(F)F)cc2)N2CCCCC[C@@H](C2=O)N(C)C(=O)CN(C)C1=O [PP0513]
NRAS/KRAS (ratio of KD value with respect to GDP-bound NRAS wild-type protein to KD value with respect to KRAS) ([1]; SPR): B (a compound having 3 or more and less than 10 is denoted as B) | HRAS/KRAS (ratio of KD value with respect to GDP-bound HRAS wild-type protein to KD value with respect to KRAS) ([2]; SPR): B (a compound having 3 or more and less than 10 is denoted as B)

CC[C@H](C)[C@@H]1NC(=O)[C@H](CC(C)C)N(C)C(=O)C[C@@H](C(=O)N(C)CC)N(C)C(=O)[C@H](C2CCCC2)N(C)C(=O)C2(CCC2)NC(=O)[C@@H]2C[C@@H](C)CN2C(=O)[C@H](CCc2ccc(C(F)(F)F)c(OC)c2)NC(=O)CN(C)C(=O)[C@H](Cc2ccc(C)cc2)N2CC/C=C\C[C@@H](C2=O)N(C)C(=O)CN(C)C1=O [PP1907]
NRAS/KRAS (ratio of KD value for NRAS to KD value for KRAS) [1, 3]: AA (a compound having 20 or more is denoted as AA) | HRAS/KRAS (ratio of KD value for HRAS to KD value for KRAS) [2, 4]: A (a compound having 10 or more and less than 20 is denoted as A)

CCCN1C(=O)[C@@H]2CCN2C(=O)CN(C)C(=O)[C@H]([C@@H](C)CC)NC(=O)[C@H](CC(C)C)N(C)C(=O)C[C@@H](C(=O)N2CCOCC2)NC(=O)[C@H](C2CCCC2)N(C)C(=O)C2(CCCC2)NC(=O)[C@@H]2CCCN2C(=O)[C@H](CCc2ccc(C(F)(F)F)c(Cl)c2)NC(=O)CN(C)C(=O)[C@@H]1Cc1ccc(C(F)(F)F)cc1 [PP0349] ([NMeL]I[Sar][Aze][NPrPhe(4-CF3)][Sar][hPhe(3-Cl-4-CF3)]P[Ac5c][NMeGly(cPent)]D-Morpholide; lactam N-11)
NRAS/KRAS (ratio of KD for GDP-bound NRAS wild-type to KD for KRAS) ([1]; SPR): C (A compound having a KD ratio of 0.1 or more and less than 3 is denoted as C) | HRAS/KRAS (ratio of KD for GDP-bound HRAS wild-type to KD for KRAS) ([2]; SPR): B (a compound having 3 or more and less than 10 is denoted as B)

CCCN1C(=O)[C@@H]2CCN2C(=O)[C@@H]2CCCCN2C(=O)[C@H]([C@@H](C)CC)NC(=O)[C@H](CC(C)C)N(C)C(=O)C[C@@H](C(=O)N2CCOCC2)N(C)C(=O)[C@H](C2CCCC2)N(C)C(=O)C2(CCCC2)NC(=O)[C@@H]2CCCN2C(=O)[C@H](CCc2ccc(C(F)(F)F)c(Cl)c2)NC(=O)CN(C)C(=O)[C@@H]1Cc1ccc(C)cc1 [PP0070] ([NMeL]I[Pip][Aze][NPrPhe(4-Me)][Sar][hPhe(3-Cl-4-CF3)]P[Ac5c][NMeGly(cPent)][NMeD]-Morpholide; lactam N-11)
NRAS/KRAS (ratio of KD for GDP-bound NRAS wild-type to KD for KRAS) ([1]; SPR): C (A compound having a KD ratio of 0.1 or more and less than 3 is denoted as C) | HRAS/KRAS (ratio of KD for GDP-bound HRAS wild-type to KD for KRAS) ([2]; SPR): B (a compound having 3 or more and less than 10 is denoted as B)

CC[C@H](C)[C@@H]1NC(=O)[C@H](CC(C)C)N(C)C(=O)C[C@@H](C(=O)N(C)C)N(CCC2CCCC2)C(=O)[C@H](C2CCCC2)N(C)C(=O)C2(CCC2)NC(=O)[C@@H]2CC(F)(F)CN2C(=O)[C@H](CCc2ccc(C(F)(F)F)c(Cl)c2)NC(=O)CN(C)C(=O)[C@H](Cc2ccc(F)cc2)N2CCCCC[C@@H](C2=O)N(C)C(=O)CN(C)C1=O [PP0977]
NRAS/KRAS (ratio of KD value with respect to NRAS to KD value with respect to KRAS) [1, 3]: B (a compound having 3 or more and less than 10 is denoted as B) | HRAS/KRAS (ratio of KD value with respect to HRAS to KD value with respect to KRAS) [2, 4]: A (a compound having 10 or more and less than 20 is denoted as A)

CC[C@H](C)[C@@H]1NC(=O)[C@H](CC(C)C)N(C)C(=O)C[C@@H](C(=O)N(C)CC)N(C)C(=O)[C@H](C2CCCC2)N(C)C(=O)C2(CCC2)NC(=O)[C@@H]2C[C@H](C)CN2C(=O)[C@H](CCc2ccc(C(F)(F)F)c(OC)c2)NC(=O)CN(C)C(=O)[C@H](Cc2ccc(C)cc2)N2CC/C=C\C[C@@H](C2=O)N(C)C(=O)CN(C)C1=O [PP1904]
NRAS/KRAS (ratio of KD value for NRAS to KD value for KRAS) [1, 3]: A (a compound having 10 or more and less than 20 is denoted as A) | HRAS/KRAS (ratio of KD value for HRAS to KD value for KRAS) [2, 4]: B (a compound having 3 or more and less than 10 is denoted as B)
